Columns and labels:
PyAeADHII [1] = molecular target: T1, PyAeADHII (Pyrobaculum aerophilum, UniProt Q8ZUP0); experiment: X-ray co-crystal structure, […] Å; assay type: binding; conditions: modelled as NADPH, NADP+ not excluded; pH 7.5
T1 construct: gene PAE2687; structural zinc only (Cys-91, Cys-94, Cys-97, Cys-105); Asn-39, Ser-61, Ile-147, Arg-88 in active site

PyAeADHII [2] = molecular target: T1, PyAeADHII; experiment: spectrophotometric NADPH oxidation at […] nm; assay type: biochemical; conditions: 0.3 mM NADPH, 50 mM sodium phosphate pH 7.5, 37 °C; reduction to alpha-tetralol

T1 sequence (Q8ZUP0 entry or part of it): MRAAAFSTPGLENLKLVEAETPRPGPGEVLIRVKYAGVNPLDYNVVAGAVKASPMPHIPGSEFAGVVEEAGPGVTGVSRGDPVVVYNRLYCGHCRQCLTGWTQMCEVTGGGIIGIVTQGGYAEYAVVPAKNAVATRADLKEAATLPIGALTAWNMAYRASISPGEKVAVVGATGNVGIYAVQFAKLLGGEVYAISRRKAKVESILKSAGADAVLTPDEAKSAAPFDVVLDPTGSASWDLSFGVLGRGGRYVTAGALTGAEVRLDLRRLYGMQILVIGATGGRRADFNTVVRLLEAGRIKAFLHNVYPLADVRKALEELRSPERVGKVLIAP

SMILES | X-ray co-crystal structure, 2.35 Å (PyAeADHII [1]) | spectrophotometric NADPH oxidation at 340 nm (PyAeADHII [2])
NC(=O)C1=CN([C@@H]2O[C@H](COP(=O)(O)OP(=O)(O)OC[C@H]3O[C@@H](n4cnc5c(N)ncnc54)[C@H](OP(=O)(O)O)[C@@H]3O)[C@@H](O)[C@H]2O)C=CC1 [NADPH] | we determined the co-crystal structure of PyAeADHII monomer bound to NADPH | –
O=C1CCCc2ccccc21 [α-tetralone] | – | The standard assay for the reduction reaction of α-tetralone

— article PMC3673990, “Physicochemical Characterization of a Thermostable Alcohol Dehydrogenase from Pyrobaculum aerophilum” (PLoS ONE, 2013)
